Data on 3 molecules can be found in US12036312B2, “Non-aqueous topical compositions comprising a halogenated salicylanilide” (priority 2016, dated 2024).

The test system of test [1] is P. acnes. Briefly: MIC by agar dilution, Propionibacterium acnes. The conditions noted are these: Cutibacterium acnes. It is filed as cell-based. The protocol: The strains of P. acnes used were CSS3288, CSS 3023, 998, and 1044 obtained from Luc Dubreuil. P. acnes strains are grown on Brucella blood agar with hemin and vitamin K [1], plates are incubated 48 to 72 hours at 35-37° C. under anaerobic conditions. Brucella blood agar with hemin and vitamin K was prepared as follows: sterile Brucella agar with hemin and vitamin K was tempered to 50-54° C. and the medium was supplemented with 5% lacked horse blood and poured in Petri dishes. Broth cultures are performed in Wilkins-Chalgren broth. All cultures are done under anaerobic conditions in an anaerobic chamber. Agar media was inoculated for single-colony isolation using sterile disposable loops. The MICs of the antibacterial agents was determined by agar dilution. […] Brucella Blood Agar with hemin and vitamin K plates containing series of two-fold dilutions of antibacterial agents were prepared. The base agar was prepared and tempered to 50-54° C. Then the blood supplement and the antibiotics were added and the 7 ml were aseptically poured into six-well culture plates. Once the agar had solidified it was transferred into the anaerobe chamber for 24 hours before use to allow for pre-reduction. Twenty-five microliters of P. acnes culture containing 10^6 CFU of were spotted in each well. The plates were incubated anaerobically for 72 hours at 35-37° C. The MIC is the lowest concentration that inhibits growth of P. acnes.
Background: In agar dilution, organisms are placed on agar that contains the substance at set levels.

The test system of test [2] is P. acnes. The class given is cell-based, Propionibacterium acnes. The following applies: for Frequency of mutation/ml: MIC × 4.
The mark [3] stands for this setting: P. acnes, agar dilution, anaerobic, 72 hours, read-out: MIC.

≈ marks a conversion by molar mass, not a printed value. Like-named read-outs stand apart in the source and are kept apart here. Some results are limits rather than exact numbers.

In the case of `CC(=O)O[C@H]1C[C@@]2(C)[C@@H](C[C@@H](O)[C@H]3[C@@]4(C)CC[C@@H](O)[C@@H](C)[C@@H]4CC[C@@]32C)/C1=C(\CCC=C(C)C)C(=O)O` [Fusidic acid, fusidic acid], the MIC (as a rule, the smallest concentration in the dilution series that meets the test's criterion for growth inhibition) in the test on P. acnes [1] (setting [3]) is 4 µg/mL (≈ 7.74 µM). Moreover, in the test on P. acnes [2] (P. acnes), the “frequency of mutation of resistance” value is reported as ~1×10^−8. The Frequency of mutation/ml with P. acnes [2] (P. acnes strain 998) is 9.17e-08 mL⁻¹; in the test with P. acnes [2] (P. acnes strain 1044), 7.21e-08 mL⁻¹; with P. acnes [2] (P. acnes strain CSS3023) it was 1.82e-08 mL⁻¹; with P. acnes [2] (P. acnes strain CSS3288), 6.15e-08 mL⁻¹.
As to `O=C(Nc1ccc([N+](=O)[O-])cc1Cl)c1cc(Cl)ccc1O` [Niclosamide, niclosamide], in the test on P. acnes [1] (setting [3]), the minimal inhibitory concentration (MIC) turned out to be 0.5 µg/mL (≈ 1.53 µM). In addition, in the test on P. acnes [2] (P. acnes), the “frequency of mutation of resistance” value is “less than 1×10^−9”. Besides, the “frequency of mutation, times lower than the two comparator compounds fusidic acid and retapamulin” value with P. acnes [2] (P. acnes) is recorded as “at least 10 times”. Moreover, the Frequency of mutation/ml was below 2.5e-09 mL⁻¹ in the test with P. acnes [2] (P. acnes strain 998), below 1.92e-08 mL⁻¹ with P. acnes [2] (P. acnes strain 1044), below 4.55e-09 mL⁻¹ with P. acnes [2] (P. acnes strain CSS3023) and below 2.7e-09 mL⁻¹ with P. acnes [2] (P. acnes strain CSS3288).
In turn, `C=C[C@]1(C)C[C@@H](OC(=O)CS[C@@H]2C[C@H]3CC[C@@H](C2)N3C)[C@]2(C)[C@H](C)CC[C@]3(CCC(=O)[C@H]32)[C@@H](C)[C@@H]1O` [Retapamulin, retapamulin] came in with a minimum inhibitory concentration (MIC) with P. acnes [1] (72 h) of 0.016 µg/mL (≈ 0.0309 µM). Moreover, the “frequency of mutation of resistance” value in the test on P. acnes [2] (P. acnes) is on record as ~1×10^−8. Further, the Frequency of mutation/ml came to 2.17e-08 mL⁻¹ with P. acnes [2] (P. acnes strain 998), 1.09e-08 mL⁻¹ with P. acnes [2] (P. acnes strain 1044), 1.46e-08 mL⁻¹ in the test with P. acnes [2] (P. acnes strain CSS3023) and 1.25e-08 mL⁻¹ in the test with P. acnes [2] (P. acnes strain CSS3288).
